Test systems include OVCAR-3 ovarian; SK-MEL-5 melanoma; 786-0 renal; UO-31 renal; HT29 colon; KM12 colon; HCT-116 colon; LOX IMVI melanoma; EKVX NSCLC.
What all share (assay): growth of human tumour cells (NCI), 48 h

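These data come from cells grown in 96-well plates and exposed to compound for 48 hours at five concentrations. GI50 = concentration required for 50% inhibition of growth. TGI denotes the concentration required for complete inhibition of growth.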

On to `CC[PH+](CC)CC.CC[PH+](CC)CC.[Au]`, for which the GI50 with OVCAR-3 ovarian was 18.2 µM; in the test with SK-MEL-5 melanoma it was 3.5 µM; in the test on 786-0 renal, 7.35 µM; with UO-31 renal, 21.4 µM; with HT29 colon it was 16.3 µM; in the test on KM12 colon it was 16.3 µM. The GI50 with HCT-116 colon was 16 µM; in the test with LOX IMVI melanoma it was 8.67 µM; in the test on EKVX NSCLC, 5.83 µM. In addition, the TGI with OVCAR-3 ovarian is 33.2 µM; in the test on SK-MEL-5 melanoma, 17.5 µM; in the test with 786-0 renal it was 19.7 µM; with UO-31 renal, 35.8 µM; in the test with HT29 colon it was 32.4 µM; in the test with KM12 colon, 33.3 µM. Further, the TGI with HCT-116 colon was 32.9 µM; with LOX IMVI melanoma it was 24.2 µM; in the test on EKVX NSCLC it was 11.5 µM.

With `CN(C)CCNC(=O)c1ccc2oc3cc4ccccc4c(=O)n3c2c1`, the GI50 in the test on OVCAR-3 ovarian is 15.4 µM; with SK-MEL-5 melanoma, 22.6 µM; in the test on 786-0 renal it was 71.6 µM; in the test with UO-31 renal, 19.6 µM; with HT29 colon it was 28 µM; in the test on KM12 colon it was 10.5 µM. In addition, the GI50 was 41.6 µM with HCT-116 colon, 42.2 µM in the test with LOX IMVI melanoma and 27.5 µM in the test with EKVX NSCLC. Moreover, the TGI with OVCAR-3 ovarian was 52.6 µM; in the test on SK-MEL-5 melanoma, 43.6 µM; with 786-0 renal, greater than 100 µM; in the test with UO-31 renal, 47.5 µM; in the test with HT29 colon it was greater than 100 µM; in the test with KM12 colon, 77.8 µM. The TGI with HCT-116 colon, in the test with LOX IMVI melanoma and in the test with EKVX NSCLC was greater than 100 µM each time.

On to `COC(=O)C1[C@H](c2ccc3c(c2)OCO3)OC(=O)[C@]1(C(=O)OC)C(=O)c1ccc(OC)c(OC)c1` (some centres undefined), for which the TGI with OVCAR-3 ovarian, in the test with SK-MEL-5 melanoma, in the test with 786-0 renal, in the test on UO-31 renal, with HT29 colon and with KM12 colon was greater than 100 µM in each case. Also, the TGI is 36.1 µM with LOX IMVI melanoma and greater than 100 µM in the test with EKVX NSCLC.

In the case of `O=[N+]([O-])C=C1c2ccccc2-c2ccccc21`, the TGI in the test with OVCAR-3 ovarian was 28.4 µM; with 786-0 renal it was 30.3 µM; in the test on UO-31 renal, 28.5 µM; in the test on HT29 colon it was 37.3 µM; in the test on KM12 colon, 31.7 µM; with HCT-116 colon, 17.5 µM. Further, the TGI with LOX IMVI melanoma was determined as 30.9 µM; with EKVX NSCLC it was 37.1 µM.

For the molecule `N#CCc1nnc(N)o1`, the TGI in the test on OVCAR-3 ovarian, with 786-0 renal, in the test on UO-31 renal, in the test with KM12 colon, with HCT-116 colon and in the test with LOX IMVI melanoma was greater than 100 µM throughout. In addition, the TGI in the test on EKVX NSCLC was greater than 100 µM.

Regarding `C=C1CC2(CCS(=O)(=O)c3ccccc32)OC1=O` (centres undefined), the TGI was determined as 21 µM with OVCAR-3 ovarian; 27 µM in the test on SK-MEL-5 melanoma; 15.7 µM with 786-0 renal; 26 µM with UO-31 renal; 31.7 µM with HT29 colon; 37.8 µM with KM12 colon. Besides, the TGI was determined as 33.3 µM in the test with LOX IMVI melanoma and 33.1 µM with EKVX NSCLC.

Regarding `COc1cc(O)c2c(c1)C(=O)C1=C(C2=O)C(O)C[C@@](C)(O)C1` (some centres undefined), the TGI came to 5.67 µM with OVCAR-3 ovarian; 9.25 µM with 786-0 renal; 6.6 µM with UO-31 renal; 2.39 µM with HT29 colon; 8.91 µM with KM12 colon; 2.22 µM with HCT-116 colon. For the same molecule, the values for the TGI in the test on LOX IMVI melanoma and in the test on EKVX NSCLC were 1.68 µM and 13.1 µM, respectively.

For `CCCCCCCCCCOC(=O)NCCC`, the TGI with OVCAR-3 ovarian was greater than 100 µM; with SK-MEL-5 melanoma, 52.9 µM; with 786-0 renal, greater than 100 µM; in the test with UO-31 renal it was 50.6 µM; in the test with HT29 colon, 49.7 µM; in the test on KM12 colon, greater than 100 µM. Besides, the TGI in the test with LOX IMVI melanoma is 36.3 µM; in the test with EKVX NSCLC it was 67.7 µM.

Consider `O=C(O)CN(c1ccc(F)cc1)S(=O)(=O)c1ccccc1`, for which the TGI in the test with OVCAR-3 ovarian, with SK-MEL-5 melanoma, in the test on 786-0 renal, in the test on UO-31 renal, in the test with HT29 colon and with KM12 colon was greater than 100 µM in each case. The TGI in the test on LOX IMVI melanoma and in the test on EKVX NSCLC was greater than 100 µM in each case.

As for `Cc1c2c(nn1-c1ccc(S(=O)(=O)NC(=S)NC(=O)c3ccccc3)cc1)-c1ccccc1CC2`, the GI50 with OVCAR-3 ovarian was 13.7 µM; in the test with SK-MEL-5 melanoma it was 30.7 µM; in the test on 786-0 renal, greater than 100 µM; with UO-31 renal it was greater than 100 µM; in the test with HT29 colon, greater than 100 µM; in the test on KM12 colon, 34.5 µM. The GI50 with LOX IMVI melanoma was 50.3 µM. Besides, the TGI in the test on OVCAR-3 ovarian is 41.4 µM; in the test with SK-MEL-5 melanoma, 96.5 µM; with 786-0 renal, greater than 100 µM; in the test with UO-31 renal, greater than 100 µM; in the test with HT29 colon it was greater than 100 µM; with KM12 colon, greater than 100 µM. In addition, in the test with LOX IMVI melanoma, the TGI is greater than 100 µM.

As for `CCOC(=O)CN(c1ccccc1)c1nc(=[N+](C)C)ss1`, the TGI in the test on OVCAR-3 ovarian was 2 µM; in the test with 786-0 renal it was greater than 100 µM; with UO-31 renal it was 54.5 µM; in the test with HCT-116 colon, greater than 100 µM.

These data come from PubChem BioAssay (NCI).
